The test system of this experiment is OT-II CD4 T cells. Nature of the experiment: OT-II CD4 T cell adoptive transfer, response to OVA+P:IC immunization. Conditions: 0.9375 mg/kg chow vs vehicle control, five days post-immunization. In kind it is in vivo, mouse. As for the experimental part:
2 hours before adoptive transfer, C57BL/6 recipient mice received 200 rads irradiation. […] B cells from donor mice were isolated via depletion of CD43+ cells with anti-CD43-conjugated magnetic beads (MACS anti-mouse CD43; Miltenyi Biotec). Alternatively, CD4+ T cells were isolated via CD4 positive selection (MACS anti-mouse CD4 (L3T4) Miltenyi Biotec). Resultant populations were >97% pure based on flow cytometric analyses. Donor B cells were labeled with either CellTrace Violet (Molecular Probes) or CFSE (Molecular Probes) at 5 μM for 5 minutes at room temperature prior to transfer. Donor CD4 T cells were labeled with CFSE (Molecular Probes) at 5 μM for 5 minutes at room temperature prior to transfer. 1-2×10^6 donor cells in 200 μl PBS were adoptively transferred via IV injection. 24 hours post transfer, tamoxifen was administered to activate Cre. Tamoxifen (Sigma-Aldrich) was dissolved in 100% corn oil (Sigma-Aldrich) at 20 mg/ml. Recipient mice were injected IP with 100 μl (2 mg) on two consecutive days.
Diet dose (DD) is calculated by multiplying the single daily dose (SD) by the body weight of a mouse (BW) and dividing that by the daily food intake (FI) [DD=(SD×BW)/FI].
For VH125.NOD experiments animals are placed on control chow immediately after weaning. […]

For `CC[C@H](Nc1ncnc2nc[nH]c12)c1nc2cccc(F)c2c(=O)n1-c1ccccc1` [idelalisib, 5-fluoro-3-phenyl-2-[(1S)-1-(7H-purin-6-ylamino)propyl]-4(3H)-quinazolinone], the “proliferation (CFSE) of OT-II T cells” value was “equivalent levels” and the “upregulation of the activation marker CD44 on OT-II T cells” value is recorded as “equivalent levels”.

The values above are taken from patent US11701361B2, “p110-delta inhibitors treat and prevent autoimmunity while sparing the ability to mount an immune response to exogenous immunogens” (THE REGENTS OF THE UNIVERSITY OF COLORADO, priority 2018, dated 2023).
